From patent US20150366962A1 (priority 2014, published 2015)

Tested on: H5 (VN/04), H11 and H12 subtype HAs
Design: species or system mice
Settings: mouse, in vivo

Row | Structure (SMILES) | IgG subtype profile (IgG2a/IgG1) to H5 subtype HA | IgG titers reacting to H11 subtype versus unadjuvanted control | IgG titers reacting to H12 subtype versus unadjuvanted control | serum IgG reactivity to the H5 subtype HA (VN/04) versus no adjuvant
1 | CCCCCCCCC=CCCCCCCCC(=O)OCC(COP(=O)(O)OCCNC(=O)c1ccc(Cn2c(=O)[nH]c3c(N)nc(OCCOC)nc32)cc1)OC(=O)CCCCCCCC=CCCCCCCCC (centres unmarked) [Compound 1V270] | inducing IgG2a | significantly better than the unadjuvanted control | significantly better than the unadjuvanted control | significantly higher reactivity
2 | Cn1c2ccccc2c2nc(SCC(=O)NC3CCCCC3)n(-c3ccccc3)c(=O)c21 [Compound 1Z105] | induced primarily IgG1 | – | – | –
